Data reported in ChEMBL document CHEMBL3526037, “Evaluation of the relationship between sex, polymorphisms in CYP2C8 and CYP2C9, and pharmacokinetics of angiotensin receptor blockers” (Drug Metab Dispos, 2013).
Blank lines part the entries; values can stand above or below the molecule they belong to.

Assays:
[1] = species on record: Homo sapiens; assay: AUC in human plasma expressing CYP2C9*3 allele carrier polymorphism at 25 to 320 mg by LC/MS/MS analysis; assay type: ADME, organism-based; conditions: in vivo
[2] = Half life in men plasma at 25 to 320 mg by LC/MS/MS analysis; assay type: ADME, organism-based; conditions: male, human
[3] = Tmax in men plasma at 25 to 320 mg by LC/MS/MS analysis; assay type: ADME, organism-based; conditions: male, human
[4] = Cmax in men plasma at 25 to 320 mg by LC/MS/MS analysis; assay type: ADME, organism-based; conditions: male, human
[5] = Tmax in human plasma expressing CYP2C9*2 allele carrier polymorphism at 25 to 320 mg by LC/MS/MS analysis; assay type: ADME, organism-based
[6] = AUC in human plasma expressing CYP2C8*4 allele carrier polymorphism at 25 to 320 mg by LC/MS/MS analysis; assay type: ADME, organism-based
[7] = species on record: Homo sapiens; assay: Cmax in human plasma expressing CYP2C8*3 allele carrier polymorphism at 25 to 320 mg by LC/MS/MS analysis; assay type: ADME, organism-based; conditions: in vivo
[8] = Cmax in human plasma expressing CYP2C9*1/*1 polymorphism at 25 to 320 mg by LC/MS/MS analysis; assay type: ADME, organism-based
[9] = AUC in women plasma at 25 to 320 mg by LC/MS/MS analysis; assay type: ADME, organism-based; conditions: female, human
[10] = Half life in human plasma expressing CYP2C8*1/*1 polymorphism at 25 to 320 mg by LC/MS/MS analysis; assay type: ADME, organism-based
[11] = Tmax in human plasma expressing CYP2C8*3 allele carrier polymorphism at 25 to 320 mg by LC/MS/MS analysis; assay type: ADME, organism-based
[12] = Tmax in human plasma expressing CYP2C9*1/*1 polymorphism at 25 to 320 mg by LC/MS/MS analysis; assay type: ADME, organism-based
[13] = Tmax in human plasma expressing CYP2C8*1/*1 polymorphism at 25 to 320 mg by LC/MS/MS analysis; assay type: ADME, organism-based
[14] = Cmax in human plasma expressing CYP2C9*2 allele carrier polymorphism at 25 to 320 mg by LC/MS/MS analysis; assay type: ADME, organism-based
[15] = Tmax in human plasma expressing CYP2C8*4 allele carrier polymorphism at 25 to 320 mg by LC/MS/MS analysis; assay type: ADME, organism-based
[16] = Cmax in human plasma expressing CYP2C9*3 allele carrier polymorphism at 25 to 320 mg by LC/MS/MS analysis; assay type: ADME, organism-based
[17] = Half life in human plasma expressing CYP2C8*3 allele carrier polymorphism at 25 to 320 mg by LC/MS/MS analysis; assay type: ADME, organism-based
[18] = Cmax in women plasma at 25 to 320 mg by LC/MS/MS analysis; assay type: ADME, organism-based; conditions: female, human
[19] = Cmax in human plasma expressing CYP2C8*2 allele carrier polymorphism at 25 to 320 mg by LC/MS/MS analysis; assay type: ADME, organism-based
[20] = AUC in human plasma expressing CYP2C8*3 allele carrier polymorphism at 25 to 320 mg by LC/MS/MS analysis; assay type: ADME, organism-based
[21] = AUC in men plasma at 25 to 320 mg by LC/MS/MS analysis; assay type: ADME, organism-based; conditions: male, human
[22] = Half life in women plasma at 25 to 320 mg by LC/MS/MS analysis; assay type: ADME, organism-based; conditions: female, human
[23] = AUC in human plasma expressing CYP2C8*2 allele carrier polymorphism at 25 to 320 mg by LC/MS/MS analysis; assay type: ADME, organism-based
[24] = Cmax in human plasma expressing CYP2C8*4 allele carrier polymorphism at 25 to 320 mg by LC/MS/MS analysis; assay type: ADME, organism-based
[25] = Half life in human plasma expressing CYP2C9*1/*1 polymorphism at 25 to 320 mg by LC/MS/MS analysis; assay type: ADME, organism-based
[26] = Half life in human plasma expressing CYP2C9*3 allele carrier polymorphism at 25 to 320 mg by LC/MS/MS analysis; assay type: ADME, organism-based
[27] = Cmax in human plasma expressing CYP2C8*1/*1 polymorphism at 25 to 320 mg by LC/MS/MS analysis; assay type: ADME, organism-based
[28] = AUC in human plasma expressing CYP2C9*2 allele carrier polymorphism at 25 to 320 mg by LC/MS/MS analysis; assay type: ADME, organism-based
[29] = AUC in human plasma expressing CYP2C9*1/*1 polymorphism at 25 to 320 mg by LC/MS/MS analysis; assay type: ADME, organism-based
[30] = Tmax in human plasma expressing CYP2C8*2 allele carrier polymorphism at 25 to 320 mg by LC/MS/MS analysis; assay type: ADME, organism-based
[31] = Tmax in women plasma at 25 to 320 mg by LC/MS/MS analysis; assay type: ADME, organism-based; conditions: female, human
[32] = Tmax in human plasma expressing CYP2C9*3 allele carrier polymorphism at 25 to 320 mg by LC/MS/MS analysis; assay type: ADME, organism-based
[33] = Half life in human plasma expressing CYP2C8*4 allele carrier polymorphism at 25 to 320 mg by LC/MS/MS analysis; assay type: ADME, organism-based
[34] = AUC in human plasma expressing CYP2C8*1/*1 polymorphism at 25 to 320 mg by LC/MS/MS analysis; assay type: ADME, organism-based
[35] = Tmax in human plasma expressing CYP2C8*3 allele carrier polymorphism at 50 mg by LC/MS/MS analysis; assay type: ADME, organism-based
[36] = Cmax in human plasma expressing CYP2C8*3 allele carrier polymorphism at 50 mg by LC/MS/MS analysis; assay type: ADME, organism-based; design: dose 50 mg
[37] = Cmax in human plasma expressing CYP2C8*4 allele carrier polymorphism at 50 mg by LC/MS/MS analysis; assay type: ADME, organism-based; design: dose 50 mg
[38] = Tmax in human plasma expressing CYP2C9*3 allele carrier polymorphism at 50 mg by LC/MS/MS analysis; assay type: ADME, organism-based
[39] = Half life in human plasma expressing CYP2C8*4 allele carrier polymorphism at 50 mg by LC/MS/MS analysis
[40] = Cmax in men plasma at 50 mg by LC/MS/MS analysis; assay type: ADME, organism-based; design: dose 50 mg; conditions: male, human
[41] = Tmax in women plasma at 50 mg by LC/MS/MS analysis; assay type: ADME, organism-based; conditions: female, human
[42] = Clearance in women plasma at 50 mg by LC/MS/MS analysis; assay type: ADME, organism-based; conditions: female, human
[43] = Clearance in men plasma at 50 mg by LC/MS/MS analysis; assay type: ADME, organism-based; conditions: male, human
[44] = Cmax in human plasma expressing CYP2C8*1/*1 polymorphism at 50 mg by LC/MS/MS analysis; assay type: ADME, organism-based; design: dose 50 mg
[45] = AUC in human plasma expressing CYP2C9*2 allele carrier polymorphism at 50 mg by LC/MS/MS analysis; assay type: ADME, organism-based
[46] = Half life in women plasma at 50 mg by LC/MS/MS analysis; conditions: female, human
[47] = Clearance in human plasma expressing CYP2C8*1/*1 polymorphism at 50 mg by LC/MS/MS analysis; assay type: ADME, organism-based
[48] = Tmax in human plasma expressing CYP2C9*2 allele carrier polymorphism at 50 mg by LC/MS/MS analysis; assay type: ADME, organism-based
[49] = Clearance in human plasma expressing CYP2C9*1/*1 polymorphism at 50 mg by LC/MS/MS analysis; assay type: ADME, organism-based
[50] = AUC in human plasma expressing CYP2C8*4 allele carrier polymorphism at 50 mg by LC/MS/MS analysis; assay type: ADME, organism-based
[51] = Clearance in human plasma expressing CYP2C8*3 allele carrier polymorphism at 50 mg by LC/MS/MS analysis; assay type: ADME, organism-based
[52] = AUC in human plasma expressing CYP2C9*1/*1 polymorphism at 50 mg by LC/MS/MS analysis; assay type: ADME, organism-based
[53] = Tmax in men plasma at 50 mg by LC/MS/MS analysis; assay type: ADME, organism-based; conditions: male, human
[54] = AUC in human plasma expressing CYP2C9*3 allele carrier polymorphism at 50 mg by LC/MS/MS analysis; assay type: ADME, organism-based
[55] = AUC in human plasma expressing CYP2C8*1/*1 polymorphism at 50 mg by LC/MS/MS analysis; assay type: ADME, organism-based
[56] = Half life in human plasma expressing CYP2C9*3 allele carrier polymorphism at 50 mg by LC/MS/MS analysis
[57] = Half life in human plasma expressing CYP2C9*2 allele carrier polymorphism at 50 mg by LC/MS/MS analysis
[58] = AUC in men plasma at 50 mg by LC/MS/MS analysis; assay type: ADME, organism-based; conditions: male, human
[59] = Half life in human plasma expressing CYP2C8*1/*1 polymorphism at 50 mg by LC/MS/MS analysis
[60] = Clearance in human plasma expressing CYP2C9*3 allele carrier polymorphism at 50 mg by LC/MS/MS analysis; assay type: ADME, organism-based
[61] = Half life in human plasma expressing CYP2C8*3 allele carrier polymorphism at 50 mg by LC/MS/MS analysis
[62] = Half life in human plasma expressing CYP2C9*1/*1 polymorphism at 50 mg by LC/MS/MS analysis
[63] = Clearance in human plasma expressing CYP2C8*4 allele carrier polymorphism at 50 mg by LC/MS/MS analysis; assay type: ADME, organism-based
[64] = Half life in men plasma at 50 mg by LC/MS/MS analysis; conditions: male, human
[65] = Tmax in human plasma expressing CYP2C9*1/*1 polymorphism at 50 mg by LC/MS/MS analysis; assay type: ADME, organism-based
[66] = AUC in human plasma expressing CYP2C8*3 allele carrier polymorphism at 50 mg by LC/MS/MS analysis; assay type: ADME, organism-based
[67] = Tmax in human plasma expressing CYP2C8*1/*1 polymorphism at 50 mg by LC/MS/MS analysis; assay type: ADME, organism-based
[68] = AUC in women plasma at 50 mg by LC/MS/MS analysis; assay type: ADME, organism-based; conditions: female, human
[69] = Tmax in human plasma expressing CYP2C8*4 allele carrier polymorphism at 50 mg by LC/MS/MS analysis; assay type: ADME, organism-based
[70] = Cmax in human plasma expressing CYP2C9*1/*1 polymorphism at 50 mg by LC/MS/MS analysis; assay type: ADME, organism-based; design: dose 50 mg
[71] = Clearance in human plasma expressing CYP2C9*2 allele carrier polymorphism at 50 mg by LC/MS/MS analysis; assay type: ADME, organism-based

- AUC [1]: 31449 ng·h/mL
- half-life [2]: 9.1 h
- Tmax [3]: 3.2 h
- Cmax [4]: 4590 ng/mL
- Tmax [5]: 3 h
- AUC [6]: 39600 ng·h/mL
- Cmax [7]: 4711 ng/mL
- Cmax [8]: 4880 ng/mL
- AUC [9]: 38600 ng·h/mL
- half-life [10]: 9.3 h
- Tmax [11]: 3 h
- Tmax [12]: 3.3 h
- Tmax [13]: 3.3 h
- Cmax [14]: 4840 ng/mL
- Tmax [15]: 2.8 h
- Cmax [16]: 4010 ng/mL
- half-life [17]: 9.4 h
- Cmax [18]: 4910 ng/mL
- Cmax [19]: 6140 ng/mL
- AUC [20]: 37400 ng·h/mL
- AUC [21]: 38800 ng·h/mL
- half-life [22]: 9.4 h
- AUC [23]: 55100 ng·h/mL
- Cmax [24]: 4860 ng/mL
- half-life [25]: 9.1 h
- half-life [26]: 9.9 h
- Cmax [27]: 4550 ng/mL
- AUC [28]: 38800 ng·h/mL
- AUC [29]: 40600 ng·h/mL
- Tmax [30]: 3.1 h
- Tmax [31]: 3.2 h
- Tmax [32]: 3 h
- half-life [33]: 7.6 h
- AUC [34]: 36500 ng·h/mL
Structure (SMILES): CCCCC(=O)N(Cc1ccc(-c2ccccc2-c2nnn[nH]2)cc1)[C@H](C(=O)O)C(C)C

- Tmax [35]: 1 h
- Cmax [36]: 231 ng/mL
- Cmax [37]: 345 ng/mL
- Tmax [38]: 1 h
- half-life [39]: 2.7 h
- Cmax [40]: 234 ng/mL
- Tmax [41]: 1.2 h
- clearance [42]: 30.3 mL/min/kg
- clearance [43]: 27.7 mL/min/kg
- Cmax [44]: 263 ng/mL
- AUC [45]: 366 ng·h/mL
- half-life [46]: 2.4 h
- clearance [47]: 28.3 mL/min/kg
- Tmax [48]: 1.1 h
- clearance [49]: 30 mL/min/kg
- AUC [50]: 494 ng·h/mL
- clearance [51]: 31.7 mL/min/kg
- AUC [52]: 473 ng·h/mL
- Tmax [53]: 1.2 h
- AUC [54]: 637 ng·h/mL
- AUC [55]: 504 ng·h/mL
- half-life [56]: 3.1 h
- half-life [57]: 2.4 h
- AUC [58]: 455 ng·h/mL
- half-life [59]: 2.3 h
- clearance [60]: 21.7 mL/min/kg
- half-life [61]: 2.5 h
- half-life [62]: 2.3 h
- clearance [63]: 26.7 mL/min/kg
- half-life [64]: 2.5 h
- Tmax [65]: 1.3 h
- AUC [66]: 413 ng·h/mL
- Tmax [67]: 1.3 h
- AUC [68]: 519 ng·h/mL
- Tmax [69]: 0.9 h
- Cmax [70]: 258 ng/mL
- clearance [71]: 31.7 mL/min/kg
Structure (SMILES): CCCCc1nc(Cl)c(CO)n1Cc1ccc(-c2ccccc2-c2nn[nH]n2)cc1 [LOSARTAN]
